Source: BindingDB's records for patent US20250145606 (Arcus Biosciences, 2025)

Assays:
Test in all cases: Inhibition of c-Kit, PDGFRα, PDGFRβ, CSFIR and FLT3 Kinase Activity Assay
[1] = target: Macrophage colony-stimulating factor 1 receptor (Homo sapiens, UniProt P07333)
Protocol: (§1) On the day of the assay, compounds were solubilized in DMSO and dispensed into a 384-well white Opti-plate (PerkinElmer, catalog #6007290) to generate a 22 point 1:2 titration. Enzyme solution was prepared for each of the tyrosine kinases in 50 mM HEPES, pH 7.4, 5 mM MgCl2 for c-Kit or 10 mM MgCl2 for FLT3, CSFIR, PDGFRa and PDGFRβ, 2 mM MnCl2, 0.01% Brij-35 and 0.01% BSA. Working enzyme concentrations were prepared for c-Kit at 2 nM (2×), PDGFRa and PDGFR at 10 nM (2×), CSFIR at 2 nM (2×) and FLT3 at 0.4 nM (2×). Five microliters of enzyme dilution of each tyrosine kinase were added to their respective 384-well white Opti-plate pre-dispensed with compound and allowed to incubate for 1 h at rt. Utilizing the same enzyme buffer recipe, 2x substrate mixes were prepared for each enzyme as follows: For c-Kit, 1.6 μM (2×) TK substrate and 16 μM (2×) ATP (Promega, catalog #V915). For PDGFRα, 3.2 μM TK substrate and 1 μM ATP. For PDGFRβ, 3.2 μM TK substrate and 40 μM ATP. For CSFIR, […] TK substrate and 20 μM ATP. For FLT3, 3.2 μM TK substrate and 100 μM ATP. Reactions were initiated by addition of 5 μL of the respective 2x substrate mix to each well of the plates containing the respective tyrosine kinase enzymes and were allowed to proceed for 120 minutes at rt, except for FLT3, the reaction time is 45 min. Following the reaction, 10 μL of detection mix consisting of 0.2 μM (2×) of Streptavidin-XL665 and 2 μM (2×) of TK-Antibody-Cryptate prepared in detection buffer (Part 62SDBRDF of KinEASE assay kit) was added and then allowed to incubate for 60 min. The TR-FRET signal was quantified by measuring the ratio of emission at 665 nm to 620 nm after excitation at 320 nm by reading on a PerkinElmer Envision multimode reader. Compound potencies (IC50 values) were determined using a standard 4-parameter non-linear regression fit.

[2] = target: Platelet-derived growth factor receptor alpha (Homo sapiens, UniProt P16234)
Protocol: as §1

[3] = target: Platelet-derived growth factor receptor beta (Homo sapiens, UniProt P09619)
Protocol: as §1

[4] = target: Mast/stem cell growth factor receptor Kit (Homo sapiens, UniProt P10721)
Protocol: as §1

Chain of Macrophage colony-stimulating factor 1 receptor (P07333 whole entry): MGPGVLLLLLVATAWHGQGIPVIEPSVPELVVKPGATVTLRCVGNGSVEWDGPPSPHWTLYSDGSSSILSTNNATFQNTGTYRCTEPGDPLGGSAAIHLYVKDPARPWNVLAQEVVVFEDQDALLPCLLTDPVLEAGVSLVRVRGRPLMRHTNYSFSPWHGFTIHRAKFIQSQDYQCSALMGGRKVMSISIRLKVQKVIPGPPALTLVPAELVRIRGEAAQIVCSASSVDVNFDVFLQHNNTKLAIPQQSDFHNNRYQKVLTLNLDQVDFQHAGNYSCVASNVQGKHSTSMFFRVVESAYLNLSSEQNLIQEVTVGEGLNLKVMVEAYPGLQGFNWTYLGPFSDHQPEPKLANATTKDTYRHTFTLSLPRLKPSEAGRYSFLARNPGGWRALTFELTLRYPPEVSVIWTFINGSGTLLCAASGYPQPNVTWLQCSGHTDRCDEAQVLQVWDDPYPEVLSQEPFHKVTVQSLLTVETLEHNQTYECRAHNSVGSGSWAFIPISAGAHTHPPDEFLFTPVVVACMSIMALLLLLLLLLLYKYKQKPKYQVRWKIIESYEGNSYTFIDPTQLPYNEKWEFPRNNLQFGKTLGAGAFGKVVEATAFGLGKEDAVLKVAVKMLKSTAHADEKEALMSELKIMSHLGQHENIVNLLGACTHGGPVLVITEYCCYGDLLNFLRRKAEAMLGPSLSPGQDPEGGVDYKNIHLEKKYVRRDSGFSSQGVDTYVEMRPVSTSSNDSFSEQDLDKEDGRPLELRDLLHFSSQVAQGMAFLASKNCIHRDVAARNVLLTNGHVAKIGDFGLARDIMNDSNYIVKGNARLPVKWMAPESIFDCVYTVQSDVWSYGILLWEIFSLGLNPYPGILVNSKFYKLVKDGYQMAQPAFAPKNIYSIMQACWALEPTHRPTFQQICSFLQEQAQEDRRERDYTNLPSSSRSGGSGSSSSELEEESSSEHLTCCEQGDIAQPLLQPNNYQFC
Chain of Platelet-derived growth factor receptor alpha (P16234 whole entry): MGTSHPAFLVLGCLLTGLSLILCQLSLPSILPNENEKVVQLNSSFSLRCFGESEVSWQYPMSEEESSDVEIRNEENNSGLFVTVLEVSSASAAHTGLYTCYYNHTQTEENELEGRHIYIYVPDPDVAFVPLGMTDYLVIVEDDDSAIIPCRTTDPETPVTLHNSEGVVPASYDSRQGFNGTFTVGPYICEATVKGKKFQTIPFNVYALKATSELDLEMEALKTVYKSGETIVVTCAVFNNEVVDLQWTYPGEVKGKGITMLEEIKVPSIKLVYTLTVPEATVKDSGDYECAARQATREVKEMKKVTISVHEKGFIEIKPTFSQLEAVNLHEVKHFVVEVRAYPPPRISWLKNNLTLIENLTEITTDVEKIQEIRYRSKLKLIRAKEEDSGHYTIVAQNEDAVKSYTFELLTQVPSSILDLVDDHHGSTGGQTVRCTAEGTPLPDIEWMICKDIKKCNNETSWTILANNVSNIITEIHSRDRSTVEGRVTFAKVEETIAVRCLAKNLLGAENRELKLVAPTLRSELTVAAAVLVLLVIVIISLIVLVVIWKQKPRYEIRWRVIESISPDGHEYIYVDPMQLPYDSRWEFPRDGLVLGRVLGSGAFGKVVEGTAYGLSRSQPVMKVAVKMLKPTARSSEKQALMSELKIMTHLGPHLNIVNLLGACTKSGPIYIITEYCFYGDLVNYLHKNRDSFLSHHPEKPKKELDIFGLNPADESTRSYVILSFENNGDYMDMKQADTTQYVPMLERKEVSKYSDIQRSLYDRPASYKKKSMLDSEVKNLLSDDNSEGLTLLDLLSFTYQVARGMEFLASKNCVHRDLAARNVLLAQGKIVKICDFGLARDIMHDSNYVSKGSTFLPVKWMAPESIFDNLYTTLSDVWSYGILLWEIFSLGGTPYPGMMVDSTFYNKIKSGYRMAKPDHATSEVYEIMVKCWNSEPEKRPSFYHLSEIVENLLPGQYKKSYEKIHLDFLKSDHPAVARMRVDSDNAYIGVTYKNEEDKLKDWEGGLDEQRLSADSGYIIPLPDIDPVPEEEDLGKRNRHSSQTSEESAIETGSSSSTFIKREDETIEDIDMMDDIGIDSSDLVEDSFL
Chain of Platelet-derived growth factor receptor beta (P09619 whole entry): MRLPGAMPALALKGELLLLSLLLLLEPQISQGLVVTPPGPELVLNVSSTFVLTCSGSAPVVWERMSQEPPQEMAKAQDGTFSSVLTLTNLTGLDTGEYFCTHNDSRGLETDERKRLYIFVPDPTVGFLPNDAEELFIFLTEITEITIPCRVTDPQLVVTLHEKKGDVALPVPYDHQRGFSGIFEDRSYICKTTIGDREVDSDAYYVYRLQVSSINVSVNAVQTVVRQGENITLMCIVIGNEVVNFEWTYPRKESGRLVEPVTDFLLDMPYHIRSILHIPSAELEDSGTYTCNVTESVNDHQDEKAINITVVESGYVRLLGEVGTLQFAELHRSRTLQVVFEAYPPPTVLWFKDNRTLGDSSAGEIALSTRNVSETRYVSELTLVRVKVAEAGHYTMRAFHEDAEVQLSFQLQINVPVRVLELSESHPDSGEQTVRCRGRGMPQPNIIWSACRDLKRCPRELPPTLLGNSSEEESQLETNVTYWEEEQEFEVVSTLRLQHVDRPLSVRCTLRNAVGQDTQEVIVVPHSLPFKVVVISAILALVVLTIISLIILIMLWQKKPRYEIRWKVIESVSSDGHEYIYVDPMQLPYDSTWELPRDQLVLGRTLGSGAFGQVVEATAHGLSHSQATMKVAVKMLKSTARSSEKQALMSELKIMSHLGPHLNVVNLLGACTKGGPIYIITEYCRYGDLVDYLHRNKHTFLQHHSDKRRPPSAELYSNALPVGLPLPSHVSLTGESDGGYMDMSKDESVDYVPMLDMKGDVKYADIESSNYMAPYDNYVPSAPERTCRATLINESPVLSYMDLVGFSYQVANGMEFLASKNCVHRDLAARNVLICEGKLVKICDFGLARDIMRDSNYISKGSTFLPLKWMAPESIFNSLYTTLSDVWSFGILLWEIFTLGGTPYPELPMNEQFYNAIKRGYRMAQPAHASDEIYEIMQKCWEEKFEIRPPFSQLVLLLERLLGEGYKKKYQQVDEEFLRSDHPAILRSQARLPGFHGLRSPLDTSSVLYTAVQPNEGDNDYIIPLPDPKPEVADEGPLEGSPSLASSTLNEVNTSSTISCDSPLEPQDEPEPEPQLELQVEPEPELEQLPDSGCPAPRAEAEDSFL
Chain of Mast/stem cell growth factor receptor Kit (P10721 whole entry): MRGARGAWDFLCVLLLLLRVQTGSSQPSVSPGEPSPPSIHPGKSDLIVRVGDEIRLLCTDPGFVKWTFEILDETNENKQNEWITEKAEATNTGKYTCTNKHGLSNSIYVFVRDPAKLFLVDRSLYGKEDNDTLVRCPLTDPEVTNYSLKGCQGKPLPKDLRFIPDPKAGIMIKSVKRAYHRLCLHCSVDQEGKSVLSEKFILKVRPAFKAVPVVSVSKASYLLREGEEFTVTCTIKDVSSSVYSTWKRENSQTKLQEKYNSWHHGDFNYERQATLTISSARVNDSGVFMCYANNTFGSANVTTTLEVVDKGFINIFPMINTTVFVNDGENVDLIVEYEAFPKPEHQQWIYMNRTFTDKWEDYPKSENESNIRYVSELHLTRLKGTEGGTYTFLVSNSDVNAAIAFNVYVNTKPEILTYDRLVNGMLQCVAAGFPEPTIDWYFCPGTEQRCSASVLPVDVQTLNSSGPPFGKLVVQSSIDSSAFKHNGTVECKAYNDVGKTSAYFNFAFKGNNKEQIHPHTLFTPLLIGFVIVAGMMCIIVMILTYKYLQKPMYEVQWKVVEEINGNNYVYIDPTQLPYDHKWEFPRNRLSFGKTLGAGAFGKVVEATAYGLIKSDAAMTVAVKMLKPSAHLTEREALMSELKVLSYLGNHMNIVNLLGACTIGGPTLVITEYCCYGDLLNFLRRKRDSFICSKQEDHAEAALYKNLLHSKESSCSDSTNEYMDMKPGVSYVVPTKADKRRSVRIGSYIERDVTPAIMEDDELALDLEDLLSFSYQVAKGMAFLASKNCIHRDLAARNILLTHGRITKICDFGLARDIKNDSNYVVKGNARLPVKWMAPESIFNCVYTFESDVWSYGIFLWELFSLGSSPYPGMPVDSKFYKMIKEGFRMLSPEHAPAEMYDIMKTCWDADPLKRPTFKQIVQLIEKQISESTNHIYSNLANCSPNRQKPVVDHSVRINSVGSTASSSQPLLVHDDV

IC50 [1] [nM]	IC50 [2] [nM]	IC50 [3] [nM]	IC50 [4] [nM]	Structure (SMILES)
> 1000	> 1000	> 1000		Cc1ncc(C(=O)Nc2cc(C(=O)NCc3cccnc3)c(F)cc2C)s1 [US20250145606, Example 12]
> 1000	> 1000	> 1000	< 100	Cc1cc(F)c(C(=O)Nc2cn[nH]c2)cc1NC(=O)c1cnc(N)s1 [US20250145606, Example 157]
